{"source": "patent US20190054093A1", "about": "“TREATMENT OF SARCOPENIA WITH ECDYSTEROIDS” (priority 2014, published 2019)", "key": {"[1]": {"target": "T1, recombinant rat androgen receptor (Rattus norvegicus, UniProt P15207)", "T1 sequence (P15207 1-902)": "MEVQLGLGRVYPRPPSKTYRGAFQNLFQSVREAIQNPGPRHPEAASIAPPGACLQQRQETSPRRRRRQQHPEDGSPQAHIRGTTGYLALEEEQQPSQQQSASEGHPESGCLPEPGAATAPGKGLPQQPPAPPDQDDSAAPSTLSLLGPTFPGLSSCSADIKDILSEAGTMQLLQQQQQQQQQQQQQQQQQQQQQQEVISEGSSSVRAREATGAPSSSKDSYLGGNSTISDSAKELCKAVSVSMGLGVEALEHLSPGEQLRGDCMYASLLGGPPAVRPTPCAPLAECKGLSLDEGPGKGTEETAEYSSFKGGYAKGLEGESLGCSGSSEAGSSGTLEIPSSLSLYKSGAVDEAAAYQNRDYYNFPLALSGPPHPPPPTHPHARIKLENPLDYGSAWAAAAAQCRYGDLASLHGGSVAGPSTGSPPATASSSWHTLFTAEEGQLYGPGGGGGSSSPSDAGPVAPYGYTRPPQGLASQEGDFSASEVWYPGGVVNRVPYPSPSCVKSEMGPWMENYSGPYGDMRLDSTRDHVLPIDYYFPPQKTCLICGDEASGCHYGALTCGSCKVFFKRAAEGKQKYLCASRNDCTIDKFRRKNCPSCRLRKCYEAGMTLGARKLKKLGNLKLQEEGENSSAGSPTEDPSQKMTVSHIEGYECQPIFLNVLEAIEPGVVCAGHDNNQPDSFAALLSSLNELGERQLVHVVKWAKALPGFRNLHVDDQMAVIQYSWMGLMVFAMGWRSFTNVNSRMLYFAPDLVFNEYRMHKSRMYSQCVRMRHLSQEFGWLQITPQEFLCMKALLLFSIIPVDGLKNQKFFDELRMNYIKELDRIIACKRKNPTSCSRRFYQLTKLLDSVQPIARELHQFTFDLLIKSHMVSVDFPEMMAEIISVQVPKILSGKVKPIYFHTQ", "assay": "Androgen receptor binding assay, displacement of [3H]mibolerone", "conditions": "concentrations of 1 to 100 μM", "description": "Briefly, recombinant rat androgen receptor was combined with [3H]mibolerone in a buffer of 50 mM Tris-HCl, pH 7.5, 0.8 M NaCl, 10% glycerol, 2 mM dithiothreitol, 1 mg/mlL BSA, and 2% ethanol. DPM of the incubation buffer was measured to quantify displacement of the labeled ligand."}, "[2]": {"system": "Primary human skeletal muscle cells", "assay": "Protein synthesis by radio-labeled leucine incorporation in human skeletal myotubes (Example 3)", "conditions": "100 nM, 24 h of treatment", "description": "Primary human skeletal muscle cells (a gift from Dr. William Cefalu of the Pennington Biomedical Research Center, Baton Rouge, La.) were seeded at a density of 10^5 cells/cm2 onto 24-well tissue culture plates. The cells were grown in DMEM supplemented with 10% FBS and a SingleQuot Kit (Lonza, Portsmouth, N.H.) containing epidermal growth factor, insulin, bovine serum albumin (BSA), fetuin, dexamethasone, and gentamicin/amphotericin-B. Cells were grown for 96 h in 5% CO2 at 37° C. until they reached 80% confluency, and the medium was replaced with differentiation medium (DMEM with 2% horse serum). After 18 days, myoblasts fused into multinucleated myotubes. […] Additionally, extracts of spinach or Ajuga turkestanica were also added. Radio-labeled leucine was used to assess any changes in protein synthesis. Decays per minute (DPM) were measured in a liquid scintillation counter (LS 6500, Beckman Coulter). Total protein was quantified using the bicinchoninic acid (BCA) method following the manufacturer's instructions (Pierce, Rockford, Ill.). The data were expressed as DPM per milligram of total protein."}, "C2C12 myotubes [3]": {"system": "C2C12 myotubes", "type": "cell-based, mouse", "conditions": "dose response experiment; 16 h", "experimental": "After cells reached 80-90% confluence (72 hours post-seeding) the media was replaced with differentiation media (DM): DMEM containing 2% horse serum (PAA; GE HealthCare), 10 mM Hepes (Lonza), 6 mM glutamine, 100 U/mL penicilin and 100 μgr/mL streptomycin (Biochrom). Media was replaced every 2 days, and after 10 days the myoblast has fused into multinucleated myotubes showing a fusion index of 70-80%.\nBefore cell treatment, a 2000× Botanicals Extracts Stocks solutions were prepared in Biological grade DMSO (Sigma) or Ultrapure H2O (milliQ; Millipore), sonicated for 30 min and Filtered using a 0.22 μm pore size syringe filter membrane (Millipore). […]\nProtein synthesis was determined by measuring the incorporation of the tritiated L-Leucine (^3H-Leu) into C2C12 cellular proteins. […] Radioactivity was measured using a liquid scintillation counter (Tri-Carb, Perkin Elmer) and expressed as decay per minute (DPM). Total protein was quantified using Bradford method-based assay (microassay procedure) following the manufacturer's instructions (Biorad protein assay, BioRad Laboratories). Protein synthesis was calculated from the trichloroacetic acid-insoluble radioactivity incorporated per microgram of total protein. Results were expressed as relative increase in L-[3H]-Leucine compared with 100% of not treated Control. […]"}, "C2C12 myotubes [4]": {"system": "C2C12 myotubes", "assay": "Protein synthesis by radio-labeled leucine incorporation in C2C12 myotubes (Example 3)", "type": "cell-based, mouse"}, "[5]": {"system": "Caspase-3 expression in C2C12 myotubes", "assay": "Caspase 3 expression in C2C12 myotubes (quantitative RT-PCR, Example 4)", "type": "cell-based, mouse", "conditions": "24 hours; extracts and turkesterone 0.002, 0.02 and 2 ppm, 20HE 0.001, 0.01 and 1 ppm", "experimental": "Experiments similar to those in example 1 have been carried out with two other plant-derived, ecdysteroid-rich extracts. […] Cells between passages 3 and 10 were seeded at a density of 10,000 cells per cm^2. Cells were grown for 48 h until they reached 80-90% confluence. […] Cells were maintained at 37° C. in a humidified 5% CO2 incubator and medium was changed every other day.\nFor RNA and protein extraction C2C12 myotubes were incubated with 0.002, 0.02 and 2 ppm of Rhaponticum carthamoides extract (RCE) and Cyanotis arachnoidea extract (CAE) or 0.001, 0.01 and 1 ppm of 20-hydroxyecdysone or 0.002, 0.02 and 2 ppm of Turkesterone for 24 hours. These two latter served as positive controls. RNA and protein were extracted using All Prep RNA/Protein Kit (Qiagen, Spain). RNA was stored at −80° C. and protein at −20° C. until further use. Total RNA was quantified using a fluorometric method with Quant-iT kit (Invitrogen, Spain). The cDNA was reverse-transcribed from the RNA extract using RT^2First Stand cDNA kit (Qiagen, Spain). Quantitative real-time RT-PCR for Caspase-3 and Myostatin were carried out using a MX3005P Q-PCR System (Agilent Technologies) and SYBR-Green/ROX detection. The housekeeping gene used was Actb and Mouse XpressRef Universal total RNA (Qiagen, Spain) as a positive control. […] The fold change in gene expression was calculated with ΔΔCt Method."}, "[6]": {"conditions": "rats fed 5 mg/kg BW for 7 days; 20HE derived from Rhaponticum carthamoides; cited from earlier work"}}}
{"smiles": "CC(C)(O)CC[C@@H](O)[C@](C)(O)[C@H]1CC[C@@]2(O)C3=CC(=O)[C@@H]4C[C@@H](O)[C@@H](O)C[C@]4(C)[C@H]3CC[C@]12C", "note": "[Example 20HE, 20-hydroxyecdysone]", "values": [{"measurement": "inhibition of [3H]mibolerone binding", "setting": "[1]", "result": "did not show any significant inhibition"}, {"measurement": "protein synthesis, % of control", "setting": "[2]", "result": "120 % of control"}, {"measurement": "protein synthesis versus the control group", "setting": "C2C12 myotubes [3]", "result": "statistically significant increase"}, {"measurement": "protein synthesis, % of control", "setting": "C2C12 myotubes [4]; 40 nM", "result": "110 % of control"}, {"measurement": "protein synthesis, % of control (peak effect)", "setting": "C2C12 myotubes [4]; 0.1 μM", "result": "120 % of control"}, {"measurement": "regulation of Caspase 3 expression", "setting": "[5]", "result": "significant effect in down regulation"}, {"measurement": "weight of liver, heart, kidneys and the tibialis anterior muscle", "setting": "[6]", "result": "increases"}]}
